Experimental findings from US8063065B2, “Azaindazole compounds as CCR1 receptor antagonists” (Boehringer Ingelheim International GmbH, priority 2008, dated 2011) are described below.

Molecules are shown by their SMILES.

Broadly, the IC50 is the concentration that inhibits the measured activity by half.

Experiment [1] has as its target T1, CCR1 (Homo sapiens, UniProt P32246).
T1 sequence (P32246 1-355): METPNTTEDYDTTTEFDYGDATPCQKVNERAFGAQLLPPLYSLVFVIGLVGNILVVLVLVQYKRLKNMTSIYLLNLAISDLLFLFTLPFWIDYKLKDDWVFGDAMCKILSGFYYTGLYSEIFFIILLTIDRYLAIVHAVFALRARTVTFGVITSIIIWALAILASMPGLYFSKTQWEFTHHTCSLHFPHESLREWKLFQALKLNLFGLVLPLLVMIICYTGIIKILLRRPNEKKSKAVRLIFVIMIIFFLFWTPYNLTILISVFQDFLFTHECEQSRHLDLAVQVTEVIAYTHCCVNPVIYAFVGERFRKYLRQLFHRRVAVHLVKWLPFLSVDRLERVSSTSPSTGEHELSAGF
Briefly: Method A: calcium flux in CCR1 transfected cells (Fluo-4 NW, FLIPR TETRA), block of the CCR1/MIP-1α interaction. In kind it is cell-based. The following applies: Method A: Fluo-4 NW, MIP-1 alpha at EC80. The method in brief:
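Non-adherent cells stably expressing recombinant CCR1 and G-alpha-16, Fluo-4 NW-loaded 1 h at room temperature, preincubated 1 h with compound (top 3,000 nM, 4-fold, 10 doses; 1% DMSO) in HBSS/20 mM HEPES pH 7.4. MIP-1 alpha added at EC80; intracellular calcium flux recorded on FLIPR TETRA.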
Background: A change in cytosolic calcium serves as a functional read-out for many receptors and channels.

Experiment [2] addresses T1, CCR1. Briefly: Method B: calcium flux in CCR1 transfected cells (Calcium 4 dye, […] FDSS6000), block of the CCR1/MIP-1α interaction. In kind it is cell-based. The following applies: Method B: Calcium 4 dye, MIP-1alpha at EC80. The gist of the method: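 Calcium flux on an FDSS6000 was triggered by MIP-1α at its EC80 in stably CCR1/G-alpha-16-expressing non-adherent cells. Before this, Calcium 4-loaded cells were preincubated with compound in HBSS, 20 mM HEPES pH 7.4, 1% DMSO: 30 min at 37 C plus 30 min at room temperature. Ten 4-fold doses began at 3,000 nM, with ±MIP-1α DMSO wells as controls.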

As for `C[C@@H](O)CNS(=O)(=O)c1ccc(CNC(=O)c2cncc3c2cnn3-c2ccc(F)cc2)cc1` [1-(4-Fluorophenyl)-1H-pyrazolo[3,4-c]pyridine-4-carboxylic acid 4-((R)-2-hydroxy-propylsulfamoyl)-benzylamide], the IC50 at CCR1 [1] came to 2 nM; on CCR1 [2], 1 nM.
Turning to `C=CC[C@H](NC(=O)c1cncc2c1cnn2-c1ccc(F)cc1)c1ccnc(S(=O)(=O)CC)c1` [1-(4-Fluorophenyl)-1H-pyrazolo[3,4-c]pyridine-4-carboxylic acid [(S)-1-(2-ethanesulfonyl-pyridin-4-yl)-but-3-enyl]-amide], the IC50 is 0.6 nM at CCR1 [1] and 0.4 nM on CCR1 [2].
In the same order, the values of `C[C@H](O)CNS(=O)(=O)c1ccc(CNC(=O)c2cncc3c2cnn3-c2ccc(F)cc2)cc1` [1-(4-Fluorophenyl)-1H-pyrazolo[3,4-c]pyridine-4-carboxylic acid 4-((S)-2-hydroxy-propylsulfamoyl)-benzylamide] are 1 nM and 0.8 nM.
In the same order, the values of `C[C@H](NC(=O)c1cncc2c1cnn2-c1ccc(F)cc1)c1ccc(S(C)(=O)=O)nc1` [1-(4-Fluorophenyl)-1H-pyrazolo[3,4-c]pyridine-4-carboxylic acid [(S)-1-(6-methanesulfonyl-pyridin-3-yl)-ethyl]-amide] are 9 nM and 3 nM.
Turning to `CC[C@H](NC(=O)c1cncc2c1cnn2-c1ccc(F)cc1)c1cncc(S(C)(=O)=O)c1` [1-(4-Fluorophenyl)-1H-pyrazolo[3,4-c]pyridine-4-carboxylic acid [(S)-1-(5-methanesulfonyl-pyridin-3-yl)-propyl]-amide], the IC50 at CCR1 [1] is 0.5 nM; on CCR1 [2] it was 0.2 nM.
Take `CC[C@H](NC(=O)c1cncc2c1cnn2-c1ccc(F)cc1)c1cccnc1` [1-(4-Fluorophenyl)-1H-pyrazolo[3,4-c]pyridine-4-carboxylic acid ((S)-1-pyridin-3-yl-propyl)-amide]: the IC50 was found to be 15 nM on CCR1 [1] and 8 nM at CCR1 [2].
Consider `CC[C@H](NC(=O)c1cncc2c1cnn2-c1ccc(F)cc1)c1cncc(S(=O)(=O)CCC(=O)O)c1` [3-[5-((S)-1-{[1-(4-Fluorophenyl)-1H-pyrazolo[3,4-c]pyridine-4-carbonyl]-amino}-propyl)-pyridine-3-sulfonyl]-propionic acid], for which the values for the IC50 on CCR1 [1] and on CCR1 [2] were 35 nM and 14 nM, respectively.
In the same order, the values of `C[C@H](NC(=O)c1cncc2c1cnn2-c1ccc(F)cc1)c1cncc(S(N)(=O)=O)c1` [1-(4-Fluorophenyl)-1H-pyrazolo[3,4-c]pyridine-4-carboxylic acid [(S)-1-(5-sulfamoyl-pyridin-3-yl)-ethyl]-amide] are 2 nM and 0.9 nM.
The matching figures for `CC[C@H](NC(=O)c1cncc2c1cnn2-c1ccc(F)cc1)c1cncc(S(=O)(=O)CC)c1` [1-(4-Fluorophenyl)-1H-pyrazolo[3,4-c]pyridine-4-carboxylic acid [(S)-1-(5-ethanesulfonyl-pyridin-3-yl)-propyl]-amide]: 0.4 nM and 0.3 nM.
